What was measured:
[1] = target: T1, MLLT1 (Homo sapiens, UniProt Q03111); assay: MLLT1 degradation assay in MV4-11 cells (JESS, 24 h); type: cell-based; set-up: endogenous in cells; host or cells: MV4-11 (ATCC CRL-9591); conditions: vs DMSO control
T1 sequence (Q03111 1-559): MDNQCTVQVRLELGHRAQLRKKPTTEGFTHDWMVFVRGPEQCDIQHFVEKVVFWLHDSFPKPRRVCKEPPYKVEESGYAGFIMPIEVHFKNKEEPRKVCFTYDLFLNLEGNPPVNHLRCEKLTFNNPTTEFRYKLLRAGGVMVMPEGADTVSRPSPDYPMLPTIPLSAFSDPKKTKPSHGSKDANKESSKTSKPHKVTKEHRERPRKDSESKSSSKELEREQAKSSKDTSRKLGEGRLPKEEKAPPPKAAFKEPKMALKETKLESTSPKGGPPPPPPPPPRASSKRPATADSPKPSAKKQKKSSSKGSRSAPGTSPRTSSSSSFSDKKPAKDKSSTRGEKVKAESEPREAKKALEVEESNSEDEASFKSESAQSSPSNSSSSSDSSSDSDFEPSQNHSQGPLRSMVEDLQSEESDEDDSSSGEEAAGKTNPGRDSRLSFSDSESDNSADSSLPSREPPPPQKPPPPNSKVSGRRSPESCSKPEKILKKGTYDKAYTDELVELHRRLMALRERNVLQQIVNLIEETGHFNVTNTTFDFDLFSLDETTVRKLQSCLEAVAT
Method in brief: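 MV4-11 cells treated at 1000, 100 and 10 nM (0.1% DMSO) for 24 h at 37° C; lysates (4 ug protein) run on JESS capillary immunoassay with MLLT1 and GAPDH antibodies. Peak areas give % degradation versus DMSO, binned A (≥75%) to D (<25%).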

[2] = system: MV4-11 cells; assay: MV4-11 cellular proliferative assay, Assay Format B (CTG 2.0, 168 h); type: cell-based; conditions: Homo sapiens, Assay format B, 168 h, read-out: IC50 (MV4-11 cellular proliferative assay)
Description: MV4-11 cells at a confluency of ~50-80% was used for cell growth assay. 600 cells/well in a 384-well opaque cell culture plate (6007680; Perkin Elmer) were seeded in 40 μL of complete medium (IMDM+10% FBS+1× Penicillin-Streptomycin). Cells were incubated overnight at 37° C., 5% CO2. 10 mM DMSO stocks were prepared, cells were treated with 10 concentrations of test compounds starting from 1 uM or 100 nM, 3-fold dilution in 10 uL (5× concentration) of complete medium. Final DMSO concentration was 0.3%. Culture plates were centrifuged at 40×g, 30s. Cells were incubated with compounds for 168 h (7 days). After 7 days, 20 uL CTG 2.0 reagent (G9242; Promega) was added per well and luminescence reading was taken in Envision Xcite 2105 multimode plate reader. Data was analyzed in GraphPad Prism 10.0 and data was shown as % viability with respect to DMSO control and dose-response curves were generated using four parameter logistic regression. Assay quality was determined by z-factor calculation using positive and negative controls.

Structure (SMILES)	MLLT1% Degradation @ 0.01 μM [1]	MLLT1% Degradation @ 0.1 μM [1]	MLLT1% Degradation @ 1 μM [1]	IC50 [2] [nM]
Cc1nn(CC2CCN(c3cccc4c3CN(C3CCC(=O)NC3=O)C4=O)CC2)c2cc(C(=O)Nc3cc4[nH]c([C@H]5CCCN5C)cc4cn3)ccc12 (stereo in doubt) [Example 107, 1-((1-(2-((rel-S)-2,6-dioxopiperidin-3-yl)-1-oxoisoindolin-4-yl)piperidin-4-yl)methyl)-3-methyl-N-(2-((R)-1-methylpyrrolidin-2-yl)-1H-pyrrolo[3,2-c]pyridin-6-yl)-1H-indazole-6-carboxamide]	A (Category A: A≥75% degradation)	A (Category A: A≥75% degradation)	A (Category A: A≥75% degradation)	< 100
Cc1c([C@H]2CCCN2C)[nH]c2cc(NC(=O)c3ccc4c(C)nn(CCCCCCCC#Cc5cccc6c5CN(C5CCC(=O)NC5=O)C6=O)c4c3)ncc12 (stereo partly drawn) [Example 57, 1-(9-(2-(2,6-dioxopiperidin-3-yl)-1-oxoisoindolin-4-yl)non-8-yn-1-yl)-3-methyl-N-(3-methyl-2-((R)-1-methylpyrrolidin-2-yl)-1H-pyrrolo[3,2-c]pyridin-6-yl)-1H-indazole-6-carboxamide]	A (Category A: A≥75% degradation)	A (Category A: A≥75% degradation)	A (Category A: A≥75% degradation)	< 100
Cc1nn(CCCCCCCC#Cc2cccc3c2CN(C2CCC(=O)NC2=O)C3=O)c2cc(C(=O)Nc3cc4[nH]c([C@H]5CCCN5C)c(Cl)c4cn3)ccc12 (stereo partly drawn) [Example 53, N-(3-chloro-2-((R)-1-methylpyrrolidin-2-yl)-1H-pyrrolo[3,2-c]pyridin-6-yl)-1-(9-(2-(2,6-dioxopiperidin-3-yl)-1-oxoisoindolin-4-yl)non-8-yn-1-yl)-3-methyl-1H-indazole-6-carboxamide]	A (Category A: A≥75% degradation)	A (Category A: A≥75% degradation)	A (Category A: A≥75% degradation)	< 100
Cc1nn(CCCCCCCC#Cc2ccc3c(c2)n(C)c(=O)n3C2CCC(=O)NC2=O)c2cc(C(=O)Nc3cc4[nH]c([C@H]5CCCN5C)cc4cn3)ccc12 (stereo partly drawn) [Example 39, 1-(9-(1-(2,6-dioxopiperidin-3-yl)-3-methyl-2-oxo-2,3-dihydro-1H-benzo[d]imidazol-5-yl)non-8-yn-1-yl)-3-methyl-N-(2-((R)-1-methylpyrrolidin-2-yl)-1H-pyrrolo[3,2-c]pyridin-6-yl)-1H-indazole-6-carboxamide]	A (Category A: A≥75% degradation)	A (Category A: A≥75% degradation)	A (Category A: A≥75% degradation)	< 100
Cc1nn(CCCCCCCC#Cc2ccc(F)c3c2CN(C2CCC(=O)NC2=O)C3=O)c2cc(C(=O)Nc3cc4[nH]c([C@H]5CCCN5C)cc4cn3)ccc12 (stereo partly drawn) [Example 52, 1-(9-(2-(2,6-dioxopiperidin-3-yl)-7-fluoro-1-oxoisoindolin-4-yl)non-8-yn-1-yl)-3-methyl-N-(2-((R)-1-methylpyrrolidin-2-yl)-1H-pyrrolo[3,2-c]pyridin-6-yl)-1H-indazole-6-carboxamide]	A (Category A: A≥75% degradation)	A (Category A: A≥75% degradation)	A (Category A: A≥75% degradation)	< 100
Cc1nn(CCCCCCCC#Cc2cccc3c2CN([C@@H]2CCC(=O)NC2=O)C3=O)c2cc(C(=O)Nc3cc4[nH]c([C@H]5CCCN5C)cc4cn3)c(F)cc12 (relative stereo) [Example 103, 1-(9-(2-((rel-R)-2,6-dioxopiperidin-3-yl)-1-oxoisoindolin-4-yl)non-8-yn-1-yl)-5-fluoro-3-methyl-N-(2-((R)-1-methylpyrrolidin-2-yl)-1H-pyrrolo[3,2-c]pyridin-6-yl)-1H-indazole-6-carboxamide]	A (Category A: A≥75% degradation)	A (Category A: A≥75% degradation)	A (Category A: A≥75% degradation)	< 100
CN1CCC[C@@H]1c1cc2cnc(NC(=O)c3ccc4cnn(CCCCCCCC#Cc5cccc6c5CN(C5CCC(=O)NC5=O)C6=O)c4c3)cc2[nH]1 (stereo partly drawn) [Example 55, 1-(9-(2-(2,6-dioxopiperidin-3-yl)-1-oxoisoindolin-4-yl)non-8-yn-1-yl)-N-(2-((R)-1-methylpyrrolidin-2-yl)-1H-pyrrol[3,2-c]pyridin-6-yl)-1H-indazole-6-carboxamide]	B (Category B: 50%≤B<75% degradation)	A (Category A: A≥75% degradation)	A (Category A: A≥75% degradation)	< 100
Cc1nn(CC2CCN(c3ccc4c(c3)C(=O)N(C3CCC(=O)NC3=O)C4=O)CC2)c2cc(C(=O)Nc3cc4[nH]c([C@H]5CCCN5C)cc4cn3)ccc12 (stereo partly drawn) [Example 104, 1-((1-(2-(2,6-dioxopiperidin-3-yl)-1,3-dioxoisoindolin-5-yl)piperidin-4-yl)methyl)-3-methyl-N-(2-((R)-1-methylpyrrolidin-2-yl)-1H-pyrrolo[3,2-c]pyridin-6-yl)-1H-indazole-6-carboxamide]	B (Category B: 50%≤B<75% degradation)	A (Category A: A≥75% degradation)	C (Category C: 25%≤C<50% degradation)	< 100
Cc1nn(CCCCCCCC#Cc2cccc3c2CN([C@@H]2CCC(=O)NC2=O)C3=O)c2cc(C(=O)Nc3cc4[nH]c([C@H]5CCCN5C)cc4cn3)ccc12 (relative stereo) [Example 99, 1-(9-(2-((rel-R)-2,6-dioxopiperidin-3-yl)-1-oxoisoindolin-4-yl)non-8-yn-1-yl)-3-methyl-N-(2-((R)-1-methylpyrrolidin-2-yl)-1H-pyrrolo[3,2-c]pyridin-6-yl)-1H-indazole-6-carboxamide]	A (Category A: A≥75% degradation)	A (Category A: A≥75% degradation)	A (Category A: A≥75% degradation)	< 100
Cc1nn(C2CCN(CC3CCN(c4ccc5c(c4)C(=O)N(C4CCC(=O)NC4=O)C5=O)CC3)CC2)c2cc(C(=O)Nc3cc4[nH]c([C@H]5CCCN5C)cc4cn3)ccc12 (stereo partly drawn) [Example 70, 1-(1-((1-(2-(2,6-dioxopiperidin-3-yl)-1,3-dioxoisoindolin-5-yl)piperidin-4-yl)methyl)piperidin-4-yl)-3-methyl-N-(2-((R)-1-methylpyrrolidin-2-yl)-1H-pyrrolo[3,2-c]pyridin-6-yl)-1H-indazole-6-carboxamide]	A (Category A: A≥75% degradation)	A (Category A: A≥75% degradation)	A (Category A: A≥75% degradation)	< 100
Cc1nn(CCCCCC2CCN(c3cccc4c3CN(C3CCC(=O)NC3=O)C4=O)CC2)c2cc(C(=O)Nc3cc4[nH]c([C@H]5CCCN5C)cc4cn3)ccc12 (stereo partly drawn) [Example 105, 1-(5-(1-(2-(2,6-dioxopiperidin-3-yl)-1-oxoisoindolin-4-yl)piperidin-4-yl)pentyl)-3-methyl-N-(2-((R)-1-methylpyrrolidin-2-yl)-1H-pyrrolo[3,2-c]pyridin-6-yl)-1H-indazole-6-carboxamide]	B (Category B: 50%≤B<75% degradation)	A (Category A: A≥75% degradation)	A (Category A: A≥75% degradation)	< 100
Cc1nn(C2CCN(CC3CCN(c4cccc5c4C(=O)N(C4CCC(=O)NC4=O)C5=O)CC3)CC2)c2cc(C(=O)Nc3cc4[nH]c([C@H]5CCCN5C)cc4cn3)ccc12 (stereo partly drawn) [Example 71, 1-(1-((1-(2-(2,6-dioxopiperidin-3-yl)-1,3-dioxoisoindolin-4-yl)piperidin-4-yl)methyl)piperidin-4-yl)-3-methyl-N-(2-((R)-1-methylpyrrolidin-2-yl)-1H-pyrrolo[3,2-c]pyridin-6-yl)-1H-indazole-6-carboxamide]	B (Category B: 50%≤B<75% degradation)	A (Category A: A≥75% degradation)	A (Category A: A≥75% degradation)	< 100

— patent US20260199484A1, “PROTAC DEGRADERS OF MLLT1 AND/OR MLLT3” (DARK BLUE THERAPEUTICS LTD, priority 2024, published 2026)
